Activity calls are given as the source filed them.
Assays:
[1] = molecular target: T1, High affinity choline transporter 1 (Homo sapiens, UniProt Q9GZV3); test: human choline transporter blockers, potency – cell-based, 10-point CRC, membrane potential dye, dose response (AID 588401); format: functional;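 note: membrane potential dye fluorescence of choline-evoked depolarization via CHT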
T1 sequence (Q9GZV3 whole entry): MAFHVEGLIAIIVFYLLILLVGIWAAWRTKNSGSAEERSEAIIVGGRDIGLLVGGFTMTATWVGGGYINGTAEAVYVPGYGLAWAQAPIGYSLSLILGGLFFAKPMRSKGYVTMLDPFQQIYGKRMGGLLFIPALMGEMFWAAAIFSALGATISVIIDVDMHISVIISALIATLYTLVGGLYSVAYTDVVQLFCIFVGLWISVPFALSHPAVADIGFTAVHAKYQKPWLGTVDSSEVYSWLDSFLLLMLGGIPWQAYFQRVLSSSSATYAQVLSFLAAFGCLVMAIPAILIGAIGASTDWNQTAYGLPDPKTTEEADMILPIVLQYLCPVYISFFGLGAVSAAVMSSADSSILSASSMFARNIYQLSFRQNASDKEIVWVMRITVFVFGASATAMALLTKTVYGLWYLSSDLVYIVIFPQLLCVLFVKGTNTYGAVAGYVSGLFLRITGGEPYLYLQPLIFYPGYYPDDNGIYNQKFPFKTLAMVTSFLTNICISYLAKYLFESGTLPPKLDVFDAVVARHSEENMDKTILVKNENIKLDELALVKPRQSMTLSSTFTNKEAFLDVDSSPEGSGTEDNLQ

[2] = molecular target: T1, High affinity choline transporter 1; test: human choline transporter blockers, potency – cell-based, 5-point CRC, membrane potential dye, dose response (AID 504840); format: functional
[3] = loss of viability in HepG2 cells – cell-based, CellTiter-Glo, cherry-picked, cytotoxicity control for Shn3 inhibitor project, dose response (AID 624134); format: functional
[4] = test system: HEK293; test: EBV LMP1 TES2 canonical NF-kB signalling blockers – cell-based, HEK293, luciferase, cherry-pick, dose response (AID 588343); format: functional; conditions: Homo sapiens
[5] = non-specific 3'UTR reporter inhibition in Clone20-Shn3RL – cell-based, Renilla luciferase, cherry-picked, counter-screen for Shn3 inhibitor project, dose response (AID 624133); format: functional
[6] = reduction of Shn3 3'UTR-driven luciferase in osteoblasts – cell-based, Clone20 osteoblasts, firefly luciferase, cherry-picked, dose response (AID 624132); format: functional;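 note: firefly luciferase luminescence from reporter carrying the Shn3 3'UTR in osteoblasts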
[7] = test system: INS1; test: INS-1E survival protection against cytokine death – cell-based, luminescence, retest, dose response (AID 449756); format: functional; conditions: Rattus norvegicus;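 note: cell death triggered by IL-1 beta plus TNF-alpha plus IFN-gamma mixture; protective hits raise ATP signal compared with cytokine alone wells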
[8] = molecular target: T2, Melanocortin receptor 4 (Homo sapiens, UniProt P32245); format: functional, cell-based;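 note: Cell-based assay with luminescence read-out, confirmatory dose-response testing for agonist activity of biased ligands at MC4R; human U2OS cells with tagged receptor and beta-arrestin; potency of agonists that increase receptor coupling to beta-arrestin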
T2 sequence (P32245 whole entry): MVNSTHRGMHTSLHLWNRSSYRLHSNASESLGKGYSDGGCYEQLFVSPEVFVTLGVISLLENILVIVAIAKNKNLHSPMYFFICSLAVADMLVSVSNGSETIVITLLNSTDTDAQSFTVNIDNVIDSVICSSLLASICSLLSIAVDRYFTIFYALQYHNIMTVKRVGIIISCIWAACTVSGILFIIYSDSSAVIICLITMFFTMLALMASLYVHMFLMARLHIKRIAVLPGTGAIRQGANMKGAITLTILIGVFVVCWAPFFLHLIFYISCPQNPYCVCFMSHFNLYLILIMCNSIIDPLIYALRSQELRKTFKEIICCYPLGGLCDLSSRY

[9] = molecular target: Protein Wnt-3a (Mus musculus, UniProt P27467); test: antagonism of Wnt3a pathway luciferase reporter – Wnt-LIGHT cells, luminescence, selectivity assay for Gli-SUFU antagonist project, dose response (AID 651570); format: functional; conditions: read-out: IC50_Mean;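 note: Wnt-LIGHT reporter cells stimulated with conditioned medium from Wnt3a-producing cells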
Protein Wnt-3a, sequence (P27467 whole entry): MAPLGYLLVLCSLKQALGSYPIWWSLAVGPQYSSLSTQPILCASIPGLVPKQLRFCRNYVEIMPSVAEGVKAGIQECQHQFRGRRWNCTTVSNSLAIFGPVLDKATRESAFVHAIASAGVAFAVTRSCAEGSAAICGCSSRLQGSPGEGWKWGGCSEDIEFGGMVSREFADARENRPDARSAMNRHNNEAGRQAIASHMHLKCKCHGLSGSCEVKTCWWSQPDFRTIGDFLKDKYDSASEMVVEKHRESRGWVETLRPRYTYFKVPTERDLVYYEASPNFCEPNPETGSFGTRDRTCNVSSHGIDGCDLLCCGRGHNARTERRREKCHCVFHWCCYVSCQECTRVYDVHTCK

[10] = molecular target: T3, Endoribonuclease toxin MazF (Escherichia coli K-12, UniProt P0AE70); test: substrate-only fluorescence increase artefacts – biochemical, single-stranded RNase substrate, counter-screen for MazEF activator project, dose response (AID 588502); format: functional
T3 sequence (P0AE70 whole entry): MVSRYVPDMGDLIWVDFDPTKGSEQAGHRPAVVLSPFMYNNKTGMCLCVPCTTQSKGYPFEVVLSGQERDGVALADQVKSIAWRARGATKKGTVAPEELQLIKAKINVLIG

[11] = molecular target: T3, Endoribonuclease toxin MazF; test: activation of MazEF endoribonuclease cleavage – biochemical, fluorescence, single-stranded RNA substrate, uHTS hits, dose response (AID 588481); format: functional
[12] = molecular target: T2, Melanocortin receptor 4; test: inhibitors of MC4R cAMP signaling – cell-based, TR-FRET, biased antagonists, dose response (AID 602298); format: functional;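 note: antagonist potency against agonist-stimulated cAMP production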
[13] = molecular target: 72 kDa type IV collagenase (Homo sapiens, UniProt P08253); test: Dose Response validation of uHTS RPN11 inhibitor hits using a MMP-2 Fluorescence assay.; format: functional
72 kDa type IV collagenase, sequence (P08253 whole entry): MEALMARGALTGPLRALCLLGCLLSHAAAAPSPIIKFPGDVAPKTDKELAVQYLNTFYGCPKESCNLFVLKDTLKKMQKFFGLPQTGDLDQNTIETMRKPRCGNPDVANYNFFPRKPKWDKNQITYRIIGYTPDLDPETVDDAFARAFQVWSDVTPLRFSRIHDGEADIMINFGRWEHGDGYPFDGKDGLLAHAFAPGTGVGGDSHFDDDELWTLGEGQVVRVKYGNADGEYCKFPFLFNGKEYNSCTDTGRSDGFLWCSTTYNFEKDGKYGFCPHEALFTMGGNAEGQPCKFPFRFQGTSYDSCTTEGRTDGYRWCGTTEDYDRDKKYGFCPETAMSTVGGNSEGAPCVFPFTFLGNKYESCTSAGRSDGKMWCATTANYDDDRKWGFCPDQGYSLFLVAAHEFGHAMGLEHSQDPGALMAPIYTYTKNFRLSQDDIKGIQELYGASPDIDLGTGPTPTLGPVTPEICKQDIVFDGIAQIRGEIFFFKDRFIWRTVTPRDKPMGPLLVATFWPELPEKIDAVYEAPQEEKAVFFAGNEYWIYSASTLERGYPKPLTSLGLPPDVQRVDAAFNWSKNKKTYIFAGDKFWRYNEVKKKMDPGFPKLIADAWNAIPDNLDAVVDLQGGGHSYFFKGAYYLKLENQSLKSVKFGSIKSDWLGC

[14] = cAMP pathway inhibition in counterscreen cell line – TR-FRET cAMP detection, counter-screen for MC4R biased antagonist project, dose response (AID 602305); format: functional, cell-based;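 note: U2OS cells stimulated with forskolin near its EC80 as the cAMP inducer; potency is for inhibition of forskolin-stimulated cAMP signaling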
[15] = molecular target: Prothrombin (Bos taurus, UniProt P00735); test: thrombin protease inhibitors – biochemical, fluorescence polarization, uHTS hits, dose response (AID 602369); format: functional
[16] = molecular target: T4, Carboxy-terminal domain RNA polymerase II polypeptide A small phosphatase 1 (Homo sapiens, UniProt Q9GZU7); test: CTDSP1 inhibitors, concentration-response, biochemical, absorbance readout, ultra-high-throughput screen actives (AID 540297); format: functional
T4 sequence (Q9GZU7 whole entry): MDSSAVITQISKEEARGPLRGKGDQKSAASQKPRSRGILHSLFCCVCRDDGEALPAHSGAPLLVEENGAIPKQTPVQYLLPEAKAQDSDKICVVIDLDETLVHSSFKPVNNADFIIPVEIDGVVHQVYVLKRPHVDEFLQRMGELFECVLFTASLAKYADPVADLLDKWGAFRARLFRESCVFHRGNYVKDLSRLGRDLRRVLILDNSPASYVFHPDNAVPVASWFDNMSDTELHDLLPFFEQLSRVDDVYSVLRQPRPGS

[17] = molecular target: 26S proteasome non-ATPase regulatory subunit 14 (Homo sapiens, UniProt O00487); test: inhibition of proteasome subunit RPN11 – biochemical, fluorescence polarization, uHTS hits, confirmation (AID 602368); format: functional
26S proteasome non-ATPase regulatory subunit 14, sequence (O00487 whole entry): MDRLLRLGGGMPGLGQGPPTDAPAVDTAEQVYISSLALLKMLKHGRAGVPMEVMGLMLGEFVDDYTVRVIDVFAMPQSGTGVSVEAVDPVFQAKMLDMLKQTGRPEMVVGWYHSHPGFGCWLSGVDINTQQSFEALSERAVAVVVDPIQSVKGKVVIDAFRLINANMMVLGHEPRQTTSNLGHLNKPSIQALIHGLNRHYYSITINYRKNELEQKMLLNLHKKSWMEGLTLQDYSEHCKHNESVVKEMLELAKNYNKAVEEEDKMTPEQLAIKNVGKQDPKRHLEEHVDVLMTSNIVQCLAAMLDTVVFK

[18] = molecular target: T5, Mitochondrial peptide methionine sulfoxide reductase (Bos taurus, UniProt P54149); format: functional;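 note: absorbance read-out, biochemical high-throughput dose-response screen for MsrA inhibitors, confirmatory; recombinant bovine MsrA coupled to E. coli TrxB with NADPH and selenocystamine; potency is for inhibitors of MsrA activity on DMSO substrate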
T5 sequence (P54149 whole entry): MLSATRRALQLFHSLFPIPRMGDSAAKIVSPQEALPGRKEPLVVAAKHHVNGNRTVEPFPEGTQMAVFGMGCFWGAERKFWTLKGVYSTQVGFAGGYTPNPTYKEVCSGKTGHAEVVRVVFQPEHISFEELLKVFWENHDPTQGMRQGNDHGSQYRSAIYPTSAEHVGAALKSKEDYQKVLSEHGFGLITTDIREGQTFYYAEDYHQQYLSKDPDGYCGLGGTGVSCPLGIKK

[19] = Trypanosoma cruzi growth suppression in host cells – NIH3T3 host cells, beta-gal luminescence, confirmation (AID 2044); format: functional, cell-based;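 note: intracellular parasites grown in NIH/3T3 mouse fibroblasts as host cells; luminescent beta-galactosidase reporter signal from transgenic T. cruzi replicating inside host cells; inhibitors lower the luminescence signal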
[20] = NIH3T3 cell viability loss – ATP luminescence, mouse fibroblasts, counter-screen, dose response (AID 2010); format: functional, cell-based;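 note: cells exposed to compound for about 90 hours before reading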
[21] = intracellular Trypanosoma cruzi inhibitors in host cells – cell-based, plate reader, cherry-pick samples, set 3, dose response (AID 651818); format: functional;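 note: compounds incubated with infected cells for about four days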
[22] = molecular target: T6, Replicative DNA helicase DnaB (Mycobacterium tuberculosis, UniProt P9WMR3); test: DnaB intein splicing inhibitors, dose response, biochemical, cell-free fluorescence (AID 449749); format: functional
T6 sequence (P9WMR3 whole entry): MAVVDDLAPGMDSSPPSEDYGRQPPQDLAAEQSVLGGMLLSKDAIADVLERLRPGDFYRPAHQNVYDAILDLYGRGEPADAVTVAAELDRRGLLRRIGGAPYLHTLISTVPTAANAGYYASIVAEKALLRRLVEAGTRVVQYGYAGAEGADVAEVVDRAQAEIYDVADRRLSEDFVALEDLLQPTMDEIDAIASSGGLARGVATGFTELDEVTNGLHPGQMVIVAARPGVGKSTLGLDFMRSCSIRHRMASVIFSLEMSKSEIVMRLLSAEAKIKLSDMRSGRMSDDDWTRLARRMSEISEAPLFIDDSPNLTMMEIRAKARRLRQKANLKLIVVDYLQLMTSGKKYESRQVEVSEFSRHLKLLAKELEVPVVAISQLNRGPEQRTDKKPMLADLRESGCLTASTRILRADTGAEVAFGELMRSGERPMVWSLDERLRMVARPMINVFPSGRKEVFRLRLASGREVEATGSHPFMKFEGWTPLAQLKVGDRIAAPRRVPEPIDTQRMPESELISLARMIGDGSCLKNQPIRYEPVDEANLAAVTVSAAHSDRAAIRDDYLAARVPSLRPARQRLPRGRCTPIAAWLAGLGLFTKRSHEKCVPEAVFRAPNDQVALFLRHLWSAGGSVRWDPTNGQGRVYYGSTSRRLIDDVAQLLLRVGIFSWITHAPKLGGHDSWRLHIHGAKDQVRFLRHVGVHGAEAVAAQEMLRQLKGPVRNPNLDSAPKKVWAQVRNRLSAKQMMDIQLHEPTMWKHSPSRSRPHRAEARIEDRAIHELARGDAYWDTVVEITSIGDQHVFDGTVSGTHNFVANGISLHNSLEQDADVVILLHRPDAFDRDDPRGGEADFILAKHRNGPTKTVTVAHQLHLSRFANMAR

[23] = molecular target: T7, Protein RecA (Mycobacterium tuberculosis, UniProt P9WHJ3); test: Fluorescence Cell-Free Homogeneous Dose Retest to Identify Inhibitors of RecA-Intein Splicing Activity. [Related pubchem assays (depositor defined):AID2097, AID2223, AID489010, AID492950]; format: functional
T7 sequence (P9WHJ3 whole entry): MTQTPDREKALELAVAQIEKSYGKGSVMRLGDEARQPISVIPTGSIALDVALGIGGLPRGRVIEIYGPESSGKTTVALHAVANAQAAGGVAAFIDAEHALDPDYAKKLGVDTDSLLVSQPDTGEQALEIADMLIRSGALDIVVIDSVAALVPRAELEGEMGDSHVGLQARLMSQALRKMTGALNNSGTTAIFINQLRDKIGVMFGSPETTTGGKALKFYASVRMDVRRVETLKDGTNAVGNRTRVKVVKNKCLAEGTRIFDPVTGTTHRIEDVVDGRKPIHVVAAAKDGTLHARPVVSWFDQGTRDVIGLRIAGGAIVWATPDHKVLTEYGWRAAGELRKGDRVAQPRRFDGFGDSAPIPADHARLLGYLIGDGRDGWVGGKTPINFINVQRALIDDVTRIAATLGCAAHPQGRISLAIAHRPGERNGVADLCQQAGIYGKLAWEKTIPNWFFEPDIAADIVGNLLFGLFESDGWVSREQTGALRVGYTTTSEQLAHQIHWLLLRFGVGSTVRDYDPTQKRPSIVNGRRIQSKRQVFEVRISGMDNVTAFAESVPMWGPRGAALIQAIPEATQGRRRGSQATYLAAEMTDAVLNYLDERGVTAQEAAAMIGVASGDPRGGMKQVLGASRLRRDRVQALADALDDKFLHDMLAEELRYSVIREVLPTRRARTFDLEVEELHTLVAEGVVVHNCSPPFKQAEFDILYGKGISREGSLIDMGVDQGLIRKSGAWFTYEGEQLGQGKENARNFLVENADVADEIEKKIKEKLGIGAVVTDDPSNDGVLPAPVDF

CCCn1c2ccccc2c2cnn(CC(=O)NCCCN3CCN(c4ccccc4)CC3)c(=O)c21
IC50 [1]: 2.84 µM (active) | IC50 [2]: 2.49 µM (active)

CCOC(=O)N1CCC(NC(=O)C2CCCN(Cc3nc(-c4cccc(Cl)c4)oc3C)C2)CC1 (configuration not stated)
AC50 [3]: 55.4 µM (active) | AC50 [4]: 2.51 µM (active) | AC50 [5]: 1.81 µM (active) | IC50 [2]: 6.92 µM (active) | AC50 [6]: 9.5 µM (active) | AC50 [7]: 3.71 µM (active)

O=C1OC(c2ccccc2)(c2cc(Br)ccc2O)c2ccccc21 (configuration not stated)
EC50 [8]: > 89.2 µM (inactive)

O=C1OC(c2ccccc2)(c2ccc(O)cc2)c2ccccc21 (configuration not stated)
EC50 [8]: > 89.2 µM (inactive)

Cn1c(=O)c2c(nc(NCc3ccco3)n2Cc2ccc(Cl)cc2Cl)n(C)c1=O
IC50 [9]: 1.94 µM (active)

Nc1cc(SCc2ccc(Cl)cc2Cl)ncn1
EC50 [10]: > 99 µM (inactive) | EC50 [11]: > 99 µM (inactive)

C=CCn1/c(=N/C(=O)c2sc3ccccc3c2Cl)sc2cc(S(N)(=O)=O)ccc21
IC50 [12]: 30.7 µM (inactive) | IC50 [13]: > 100 µM (inactive) | IC50 [14]: > 64.6 µM (inactive) | IC50 [15]: > 100 µM (inactive) | IC50 [16]: 4.39 µM (active) | IC50 [17]: 12.5 µM (active)

C/C(CC(C)C)=N/Nc1ccc([N+](=O)[O-])cc1[N+](=O)[O-]
IC50 [18]: 155 µM (inactive)

CCn1/c(=N\C(=O)CS(=O)(=O)c2ccccc2)sc2cccc(OC)c21
EC50 [19]: 1.74 µM (active) | AC50 [3]: > 70 µM (inactive) | AC50 [5]: 1.58 µM (active) | EC50 [20]: > 60 µM (not active) | IC50 [9]: 1.03 µM (active) | AC50 [6]: 1.68 µM (active)

Cc1cc(O)cc(O)c1/C=N/Cc1ccco1
EC50 [10]: 21.9 µM (inactive) | EC50 [11]: > 99 µM (inactive)

CC(C)NC(=O)Nc1cccc2c1O[C@H](CN(C)Cc1ccc(C(=O)Nc3ccccc3N)cc1)[C@H](C)CN([C@@H](C)CO)C2=O
AC50 [21]: 2.95 µM (active)

Cc1cc(C)n(-c2ccc(NN=C(C#N)C#N)cc2)n1
AC50 [4]: 1.82 µM (active) | AC50 [22]: 5.45 µM (active) | EC50 [23]: 9.25 µM (active)

C[C@]12CCC[C@H](O1)c1c(cc3c(c1O)C(=O)c1c(O)cc(O)cc1C3=O)O2
IC50 [13]: 78.4 µM (active) | IC50 [15]: 4.81 µM (active) | IC50 [17]: 2.94 µM (active)

COc1ccc(Nc2nc3ccc(C)cc3cc2C#N)c(OC)c1
EC50 [10]: 14.2 µM (active) | EC50 [11]: 34.1 µM (inactive)

COc1ccccc1Cc1c(-c2cccc(Br)c2)nc2ccc(Cl)cn12
IC50 [13]: > 100 µM (inactive) | IC50 [15]: 13 µM (active) | IC50 [17]: 8.48 µM (active)

CCc1cccc(CC)c1NC(=O)c1cccc(S(=O)(=O)N2CCN(C)CC2)c1
IC50 [1]: 8.43 µM (active) | IC50 [2]: 7.52 µM (active)

From ChEMBL document CHEMBL1201862, “PubChem BioAssay data set” (2004)
